In US6251950A, “Aliphatic propargylamines as cellular rescue agents” (University of Saskatchewan, priority 1998, dated 2001):

What was measured:
[1] = system: neurons; settings: cited from earlier work
[2] = low concentrations; cited from earlier work
[3] = system: HSP70; experiment: Kainate-induced HSP70 expression in hippocampal CA1 field; type: in vivo, rat
Method: (§1) The levels of both proteins were measured 24 h after a single injection of kainate (10 mg/Kg,i.p). The levels (assessed by quantitative immunohistochemical imaging) can be seen in Table 5.
(§2) Values are means ± sem (n = 5)
(§3) Kainate (10 mg/Kg, i.p.); Rats with seizures between stages IV severe to V
(§4) severe were used. R-2HPA (0.25 mg/Kg, s.c.) was administered 4 h after
(§5) kainate injection; HSP70 and c-Fos expression were assessed 24 h after
(§6) kainate treatment (for details of method please see Zhang et al, 1996).
(§7) Statistics were performed using ANOVA followed by Newman-Keuls multiple

[4] = system: c-Fos; experiment: Kainate-induced delayed c-Fos expression in hippocampal CA1 field; type: in vivo, rat
Method: as §1, §2, §3, §4, §5, §6, §7

[5] = system: SOD1 mRNA, PC12 cells; settings: Li, et al., 1995; cited from earlier work
[6] = system: Tourette's syndrome; settings: Tourette's syndrome patients; cited from earlier work
[7] = system: catecholaminergic neuroblastoma SH-SY5Y cells; settings: cited from earlier work
[8] = system: damaged neurons; settings: some models; cited from earlier work
[9] = system: PC12 cells; settings: cited from earlier work
[10] = rodents and humans; cited from earlier work
[11] = system: cerebellar granule cells (CGC); experiment: in vitro; type: cell-based, Wistar rat
Text: (§8) Cultures of cerebellar granule cells (CGC) can be induced into apoptosis by the addition of a high concentration of cytosine arabinoside (Ara C) (Dessi et al., 1995) and it has been shown that this is a p53 dependent apoptosis (Enokido et al, 1996). We have measured the antiapoptotic effect of N-(2-heptyl)propargylamine (2HPA) using this system and compared the results to those obtained with previously known aliphatic methyl propargylamines and deprenyl.
(§9) Cultures of CGC were obtained from 6-8 day old Wistar rat pups. Cultures were grown on glass in 35 mm petri dishes for 3 days and then used for experiments. 20 μl aliquots of drug solutions (Ara C, anti-apoptotic drugs, drug vehicles) were added to the medium of the cultures. 24 Hours later the cultures were fixed with FAM, and stained with bis-benzamide. Normal and apoptotic nuclei were counted to a total of 90-120 cells per culture. […] Concentrations in excess of 150 μM caused detachment of the cultures.
(§10) Compounds were added at the following concentrations: Ara C, 100 μM,

[12] = system: Alzheimer's disease; settings: some patients; cited from earlier work
[13] = system: Parkinson's disease; settings: cited from earlier work
[14] = system: LNGFR mRNA, PC12 cells; experiment: LNGFR mRNA levels in PC12 cells (Northern Blot); type: cell-based
Method: The LNGFR mRNA levels were detected by Northern Blots using total RNA from cultured PC12 cells treated with R-2HPA for 24 hours. The blots were hybridized with LNGFR cDNA probe labelled with P^32 dCTP and the auto radiographs were scanned by a Beckman spectrometer.

[15] = system: pyramidal neurons in the hippocampus (CA1 neurons); experiment: Hypoxia/ischaemia model, CA1 neuron survival; type: in vivo, rat
[16] = biological target: T1, rat liver mitochondrial monoamine oxidase B (Rattus norvegicus, UniProt P19643); experiment: biochemical; type: biochemical
T1 sequence (P19643 1-520): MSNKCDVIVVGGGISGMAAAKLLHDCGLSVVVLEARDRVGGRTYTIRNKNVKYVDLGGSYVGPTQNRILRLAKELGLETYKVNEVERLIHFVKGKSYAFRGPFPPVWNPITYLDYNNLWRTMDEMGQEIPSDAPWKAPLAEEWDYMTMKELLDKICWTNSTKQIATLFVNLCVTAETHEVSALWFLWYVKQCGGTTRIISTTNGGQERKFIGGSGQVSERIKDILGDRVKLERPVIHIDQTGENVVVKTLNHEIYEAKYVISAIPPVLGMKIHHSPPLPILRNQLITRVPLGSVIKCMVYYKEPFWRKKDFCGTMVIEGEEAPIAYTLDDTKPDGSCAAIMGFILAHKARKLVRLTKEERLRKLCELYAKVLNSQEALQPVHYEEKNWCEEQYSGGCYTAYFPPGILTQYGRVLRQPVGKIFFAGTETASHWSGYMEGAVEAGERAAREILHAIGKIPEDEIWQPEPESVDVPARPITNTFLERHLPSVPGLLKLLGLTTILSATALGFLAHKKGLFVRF
Method: Enzyme activity was assessed using a radiometric method as previously described (Yu et al, 1992).

[17] = biological target: T2, mouse brain MAO-B (Mus musculus, UniProt Q8BW75); experiment: Inhibition in vivo of brain MAO-B activity after intraperitoneal administration
T2 construct: Striata were dissected from the brain two hours after i.p. administration of the drugs; from tissue; host or cells: mouse brain striata, dissected two hours after i.p. dosing
T2 sequence (Q8BW75 1-520): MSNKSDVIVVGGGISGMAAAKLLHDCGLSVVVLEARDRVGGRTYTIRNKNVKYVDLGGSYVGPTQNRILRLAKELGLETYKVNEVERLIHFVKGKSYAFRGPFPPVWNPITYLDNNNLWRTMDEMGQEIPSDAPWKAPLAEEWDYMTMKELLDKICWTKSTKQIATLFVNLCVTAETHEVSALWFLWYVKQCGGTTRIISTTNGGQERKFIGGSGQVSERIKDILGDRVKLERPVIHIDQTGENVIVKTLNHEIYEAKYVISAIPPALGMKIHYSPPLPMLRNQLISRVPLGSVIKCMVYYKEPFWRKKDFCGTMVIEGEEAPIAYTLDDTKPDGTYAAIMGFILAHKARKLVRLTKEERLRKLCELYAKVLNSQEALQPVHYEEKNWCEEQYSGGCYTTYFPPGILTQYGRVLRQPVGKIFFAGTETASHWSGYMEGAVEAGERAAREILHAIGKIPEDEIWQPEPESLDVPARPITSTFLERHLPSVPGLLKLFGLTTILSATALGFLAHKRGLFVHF
Method: Results are the average of two independent triplicate experiments for each i.p. dose. The doses were 0.5, 1, 2, 5, 10, 20 mg/Kg. Striata were dissected from the brain two hours after i.p. administration of the drugs. MAO-B activities were then determined immediately (Yu et al 1992). The values were estimated from dose-response curves.

[18] = system: SOD1 mRNA, PC12 cells; experiment: SOD1 mRNA levels in PC12 cells (Northern Blot); type: cell-based
Method: PC12 cells were used to study the gene regulation of SOD (copper, zinc-dependent type, i.e. SOD1) by (R)-2-heptylpropargylamine (R-2HPA).
The SOD1 mRNA levels were detected by Northern Blots using total RNA from cultured PC12 cells treated with R-2HPA for 24 hours. The blots were hybridized with SOD1 cDNA probe labelled with P^32 dCTP and the auto radiographs were scanned by a Beckman spectrometer.

[19] = system: hippocampal CA1 neurons; experiment: Kainic acid-induced neuronal damage; type: in vivo, rat; settings: in words
[20] = in vitro; type: cell-based, Wistar rat; settings: rat, cerebellar granule cells
Text: as §8, §9, §10

[21] = kainate 10 mg/Kg i.p., 24 h, mean ± sem (n = 5)
[22] = after kainate, rat hippocampal CA1 region
[23] = kainate 10 mg/Kg i.p., R-2HPA 0.25 mg/Kg s.c. 4 h after, assessed 24 h after kainate, mean ± sem (n = 5), *p < 0.01

For `C#CCNC1CCc2ccccc21` (stereo not shown) [N-propargyl-1-aminoindan], the “in vitro neuronal survival after glutamate toxicity” value [1] is listed as “effective in enhancing the in vitro neuronal survival”.
In the case of `CN[C@@H](C)Cc1ccccc1` [methamphetamine], the neurotoxicity [2] is given as “neurotoxic even at quite low concentrations”.
With `C=C(C)[C@H]1CN[C@H](C(=O)O)[C@H]1CC(=O)O` [Kainate, kainic acid] the “HSP70 (Kainate alone)” value [3, 21] was 10.8 ± 3.1 and the “Delayed c-Fos (Kainate alone)” value [4, 21] was 18.0 ± 4.5.
In the case of `CC(N)Cc1ccccc1` (stereo not shown) [amphetamine], the neurotoxicity [2] is given as “neurotoxic even at quite low concentrations”.
In the case of NGF: NGF, the “SOD1 mRNA induction (previous findings)” value [5] is listed as “can induce SOD1 mRNA in a dose dependent manner”.
In the case of `C#CCN(C)[C@H](C)Cc1ccccc1` [R-deprenyl], the “symptoms of attention deficit disorder” value [6] is given as “improved”, the “cytotoxicity of dopamine towards SH-SY5Y cells” value [7] is given as “enhance the cytotoxicity of dopamine” and the “SOD1 mRNA induction (previous findings)” value [5] is given as “can induce SOD1 mRNA in a dose dependent manner”. For the same compound, the “concentrations required to prevent apoptosis versus minimum necessary for MAO-B inhibition” value [8] was “at least an order of magnitude lower”, the “prevention of apoptosis in PC12 cells” value [9] was “can prevent apoptosis” and the “life span and sexual activity” value [10] was “prolong life span and sexual activity”. For the same compound, the “blocking of Ara C induced apoptosis” value ([11]; 10^-7 M (FIG. 1c)) was “completely blocked”, the “clinical condition of Alzheimer patients” value [12] was “improved the clinical condition of some Alzheimer patients” and the “effect in Parkinson's disease” value ([13]; adjuvant to L-dopa) was “effective adjuvant to L-dopa”. The “onset of symptoms in Parkinson's disease” value ([13]; early otherwise untreated cases, administered alone) was “delay onset of symptoms”.
In the case of `C#CCN[C@H](C)CCCCC.Cl` [Example R-2HPA, (R)-N-2-Heptylpropargylamine hydrochloride], the “LNGFR mRNA” value ([14]; PC12 cells) is reported as “downregulated LNGFR mRNA”, the mrna remaining at 1 µM ([14]; Rattus norvegicus, PC-12, 1 μM, 24 hours, Mean ± SD (n = 4), **p < 0.01, control 100 ± 5.4) is reported as 68.8 ± 16.4% and the “mean survival of CA1 neurons, percentage of vehicle treated controls (Table 2)” value ([15]; 0.1 μmol/kg, s.c., vehicle = 100%, ± sem (n = 6-10), **P < 0.01) is reported as 320 ± 48%. The response vs control in vivo at 0.1 µmol/kg ([15]; Rattus norvegicus, Neuron, sc, 0.1 μmol/kg, s.c., vehicle = 100%, ± sem (n = 6-10), *P < 0.05, **P < 0.01, read-out: Percentage survival of CA1 neurones, of vehicle treated controls (Table 4)) was 320 ± 48%, the “potency following oral administration versus R-2HMP” value ([15]; oral) was “more potent than its aliphatic methyl propargylamine analogue, R-2HMP” and the “activity in the hypoxia/ischaemia model” value ([15]; s.c.) was “Most active”. The “HSP70 expression” value [3, 22] was “able to block the expression of both genes”, the “HSP70 (Kainate + compound)” value [3, 23] was 4.6 ± 2.0 and the “Comparison to most effective MAO-B inhibitor in group” value ([16]; in vitro, relative to most effective inhibitor in group) was 0.8%. For the same compound, the IC50 ([16]; substrate PE (β-phenylethylamine) 1.9 × 10^-5 M, average of at least 2 independent triplicate experiments) was 4 µM, the “inhibitory effect on mouse brain MAO-B” value ([17]; i.p., compared with R-2HMP) was “weaker inhibitory effect” and the “Comparison to most effective inhibitor” value ([17]; in vivo, i.p., relative to R-2HMP) was 5%. For the same compound, the “ED50 value fold higher than that of R-2HMP” value ([17]; mouse brain MAO-B, i.p.) was 20 fold, the ED50 ([17]; mouse, ip, 2 h, read-out: IC50 (mg/Kg) (MAO-B, in vivo)) was 4 mg/kg and the “SOD1 gene expression” value ([18]; PC12 cells) was “stimulate SOD1 gene expression”. The SOD1 mRNA level, % of control at 1 µM ([18]; Rattus norvegicus, PC-12, 1 μM, 24 hours, Mean ± SD (n = 4), **p < 0.01, control 100 ± 20) was 184 ± 41%, the “prevention of kainic acid-induced neuronal damage” value [19] was “capable of preventing kainic acid-induced neuronal damage” and the “delayed c-Fos expression” value [4, 22] was “able to block the expression of both genes”. The “Delayed c-Fos (Kainate + compound)” value [4, 23] was 4.5 ± 3.7.
In the case of `Nc1ccn([C@@H]2O[C@H](CO)[C@@H](O)[C@@H]2O)c(=O)n1` [Ara C, cytosine arabinoside], the MCC at 24 h [20] is reported as > 150 µM and the “Percent Apoptotic Nuclei (Ara C alone)” value ([11]; Ara C 100 μM, mean ± sem of 4 cultures) is reported as 14.6 ± 0.9%.
